According to publication PMC10762035, “Molecular basis of human trace amine-associated receptor 1 activation” (Nature Communications, 2024):
“And” between values parts separate entries of the source, which are not always exact repeats. Equal entries are not always repeated. Structures can show the parent of a compound that is named as a salt.

Target: T1, hTA1 (Homo sapiens, UniProt Q96RJ0)
T1 construct: expressed in transfected cells; host or cells: HEK293T
T1 sequence (Q96RJ0 1-339): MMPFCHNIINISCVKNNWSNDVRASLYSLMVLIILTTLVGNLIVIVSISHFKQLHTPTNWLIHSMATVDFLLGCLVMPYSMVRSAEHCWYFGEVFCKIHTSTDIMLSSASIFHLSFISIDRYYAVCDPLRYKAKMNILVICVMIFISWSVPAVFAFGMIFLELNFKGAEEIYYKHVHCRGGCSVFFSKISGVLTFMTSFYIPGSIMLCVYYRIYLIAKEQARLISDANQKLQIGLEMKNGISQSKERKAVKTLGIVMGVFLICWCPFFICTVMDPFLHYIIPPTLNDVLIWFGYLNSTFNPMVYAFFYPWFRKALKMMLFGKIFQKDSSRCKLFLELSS
Test: Screen of 89 aminergic compounds at 10 µM, cAMP accumulation in HEK293T cells;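 note: HEK293T cells co-transfected with hTA1 and GloSensor cAMP reporter, cAMP accumulation detected by luminescence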
Type: cell-based
Details: not given

SMILES	Luminescence for Screening Data
CN1CCc2ccccc2Cc2[nH]c3ccccc3c2CC1 [LE300]	5.7 and 3.6 and 5.5 and 5

Same assay, conditions: 10 µM of compound; HEK293T; threshold log2-fold change of 2

SMILES	increase of signal over DMSO-treated controls (hTA1 activation)
NCCc1c[nH]cn1 [histamine]	≥ 4 fold

Same assay, conditions: quadruplicate values; screen at 10 µM

SMILES	Luminescence for Screening Data
Cl.O=c1[nH]oc2c1CCNC2 [Gaboxadol HCl]	7 and 8.2 and 5.3 and 6.3
O=C(CCCN1CCC(O)(c2ccc(Cl)cc2)CC1)c1ccc(F)cc1 [Haloperidol]	7.4 and 8.8 and 6.8 and 6.9
O=C1c2ccccc2S(=O)(=O)N1CCCCN1CCN(c2ncccn2)CC1 [Ipsapirone]	6.8 and 5.5 and 5.4
CNC1(c2ccccc2Cl)CCCCC1=O (centres unmarked) [Ketamine]	4.7 and 6.1 and 5.5 and 5.6
O=C(c1ccc(F)cc1)C1CCN(CCn2c(=O)[nH]c3ccccc3c2=O)CC1 [Ketanserin]	6.8 and 5.5 and 5.4 and 3.9
CS(=O)(=O)Nc1ccc(Cc2noc(-c3ccc4[nH]cc(CCN)c4c3)n2)cc1 [L694 247]	6.5 and 8.1 and 7.2
O=C(CCCCCN1CCN(c2ccccc2-c2ccccc2)CC1)NC1CCCc2ccccc21 (centres unmarked) [LP12]	5.4 and 4.7 and 7.1 and 5
COc1ccc(CC2NCCc3c2[nH]c2ccc(C)cc32)c(Cl)c1OC.Cl (centres unmarked) [LY266097 hydrochloride]	5.6 and 6.8 and 5.3 and 5.9
CN1CCC(C(=O)c2cccc(NC(=O)c3c(F)cc(F)cc3F)n2)CC1 [Lasmitidan]	5.8 and 6.4 and 6.2 and 4.1
CN1[C@@H](CC(=O)c2ccccc2)CCC[C@H]1C[C@H](O)c1ccccc1.CN1[C@@H](CC(=O)c2ccccc2)CCC[C@H]1C[C@H](O)c1ccccc1.O=S(=O)(O)O [Lobeline sulfate]	7.2 and 5 and 5.7 and 5.4
CN1CCN(C2=Nc3ccccc3Oc3ccc(Cl)cc32)CC1.O=C(O)CCC(=O)O [Loxapine succinate salt]	5.2 and 3.9 and 5.6
Fc1ccc2c(CCNCc3cccc(OCC(F)(F)C(F)F)c3)c[nH]c2c1 [LuAE58054]	7.5 and 10.3 and 7.4 and 7.7
COc1cccc([C@H](O)C2CCN(CCc3ccc(F)cc3)CC2)c1OC [MDL 100907]	5.4 and 6.7 and 5.2 and 5.8
CSc1ccc2c(c1)C(N1CCN(C)CC1)Cc1ccccc1S2 (centres unmarked) [Methiothepin]	2.6 and 3.3 and 3 and 3.4
CN1C[C@H](C(=O)N[C@]2(C)O[C@@]3(O)[C@@H]4CCCN4C(=O)[C@H](Cc4ccccc4)N3C2=O)C=C2c3cccc4c3c(cn4C)C[C@H]21.O=C(O)/C=C\C(=O)O [Methylergotamine maleate]	42.5 and 31.9 and 34.9 and 38.8
NC(=O)C[S+]([O-])C(c1ccccc1)c1ccccc1 (centres unmarked) [Modafanil]	6.8 and 5.8 and 5.7 and 8.1
NC(=O)c1ccc(F)c2c1C[C@@H](N(C1CCC1)C1CCC1)CO2 [NAD 299]	6.3 and 5.6 and 4.8 and 5.9
COc1ccccc1N1CCN(CCCCN2C(=O)c3ccccc3C2=O)CC1 [NAN190]	6.8 and 8.1 and 6.1 and 6.2
O=[N+]([O-])c1ccc(CSc2ncnc3c2ncn3[C@@H]2O[C@H](CO)[C@@H](O)[C@H]2O)cc1 [NBMPR]	6.9 and 7.3 and 6.6
O=C1CC[C@@]2(O)[C@H]3Cc4ccc(O)c5c4[C@@]2(CCN3CC2CC2)[C@H]1O5 [Naltrexone hydrochloride]	7.8 and 5.6 and 5.9 and 6.7
CNc1cc(OC)c(C(=O)NC2CCN(Cc3ccccc3)C2C)cc1Cl (centres unmarked) [Nemonapride]	5.7 and 7.5 and 7.3 and 6.6
C#CCN(C)Cc1ccccc1 [Pargyline hydrochloride]	8.3 and 10.1 and 8.8 and 8.5
CN1CCC(=C2c3ccccc3Sc3ccccc32)CC1 [Pimethixine]	3.8 and 3.7
COc1cc2nc(N3CCN(C(=O)c4ccco4)CC3)nc(N)c2cc1OC [Prazosin hydrochloride]	6.6 and 6.4 and 6.7 and 7.2
O=c1c(O)c(-c2ccc(O)c(O)c2)oc2cc(O)cc(O)c12 [Quercetin]	31.9 and 24.7 and 28.4 and 23.7
C=C[C@H]1C[N@@]2CC[C@H]1C[C@H]2[C@H](O)c1ccnc2ccc(OC)cc12 [Quinine sulfate]	7.1 and 8 and 6.1 and 7.2

SMILES	Luminescence for Screening Data
COc1cc(N)c(Cl)cc1C(=O)CCC1CCN(CCNS(C)(=O)=O)CC1.Cl [RS 67506 hydrochloride]	5.6 and 9 and 4.8 and 5.5
CC(C)c1cc(-c2ccc(F)c3ccccc23)nc(N)n1 [RS 127445]	10.7 and 5.8 and 6.4 and 7
CCN1CCC[C@H]1CNC(=O)c1c(O)c(Cl)cc(Cl)c1OC [Raclopride]	4.1 and 6.9 and 6.4 and 5
COC(=O)[C@H]1[C@H]2C[C@H]3c4[nH]c5ccccc5c4CCN3C[C@H]2CC[C@@H]1O [Rauwolscine hydrochloride]	6.9 and 7.7 and 6.8
COC(=O)[C@H]1[C@H]2C[C@@H]3c4[nH]c5cc(OC)ccc5c4CCN3C[C@H]2C[C@@H](OC(=O)c2cc(OC)c(OC)c(OC)c2)[C@@H]1OC [Reserpine]	10.3 and 8.2 and 7.3 and 7.1
Cc1nc2n(c(=O)c1CCN1CCC(c3noc4cc(F)ccc34)CC1)CCCC2 [Risperidone]	6.7 and 6 and 6.8 and 7
Cc1nc2sccn2c(=O)c1CCN1CCC(=C(c2ccc(F)cc2)c2ccc(F)cc2)CC1 [Ritanserin]	5.6 and 5.8 and 6.1 and 6.3
CN1CCN(c2cccc3c(S(=O)(=O)c4ccccc4)c[nH]c23)CC1 [Ro4368554]	5.1 and 6 and 4.2 and 4.8
CCCCN1CCC(COC(=O)c2cc(Cl)c(N)c3c2OCCO3)CC1 [SB204070]	5.4 and 6 and 6.4
Cn1ccc2cc3c(cc21)CCN3C(=O)Nc1cccnc1 [SB206553]	5.8 and 7.8 and 6.3
CC1CCN(CC[C@H]2CCCN2S(=O)(=O)c2cccc(O)c2)CC1 [SB269970]	7.2 and 7 and 6.5
COc1ccc(S(=O)(=O)Nc2cc(Cl)cc(Cl)c2OC)cc1N1CCNCC1 [SB399885]	6.4 and 5.8 and 6.1 and 6.2
O=S(=O)(c1ccccc1)c1cnc2c(N3CCNCC3)cccc2c1 [SB742457]	9 and 8.4 and 8.8 and 9.7
CN1CCC(c2cn(C)c3ccc(OS(=O)(=O)c4c(F)cccc4F)cc23)CC1.O=C(O)C(=O)O [SGS 518 oxalate]	6.7 and 6.8 and 8
NCCc1c[nH]c2ccc(O)cc12 [Serotonin Hydrochloride]	29.3
O=C1NCCN1CCN1CCC(c2cn(-c3ccc(F)cc3)c3ccc(Cl)cc23)CC1 [Sertindole]	7.6 and 9 and 6.3
O=C(CCCN1CCC2(CC1)C(=O)NCN2c1ccccc1)c1ccc(F)cc1 [Spiperone]	6.2 and 8.3 and 7.1 and 6.7
CNS(=O)(=O)Cc1ccc2[nH]cc(CCN(C)C)c2c1 [Sumatriptan]	6.2 and 7.3
COc1cc2c(cc1OC)C1CC(=O)C(CC(C)C)CN1CC2 (centres unmarked) [Tetrabenazine]	6.8 and 8.5 and 6.4 and 8.8
C/C=C(/C)C(=O)O[C@H]1C(C)=C2[C@H]([C@@H]1OC(=O)CCCCCCC)[C@@](C)(OC(C)=O)C[C@H](OC(=O)CCC)[C@@]1(O)[C@H]2OC(=O)[C@@]1(C)O [Thapsigargin]	6.1 and 7.3 and 5.8 and 7.7
COc1ccc(C(CN(C)C)C2(O)CCCCC2)cc1 (centres unmarked) [Venlafaxine]	6.7 and 7 and 6 and 6.5
O=C1Cc2cc(CCN3CCN(c4nsc5ccccc45)CC3)c(Cl)cc2N1 [Ziprasidone]	5.8 and 4.8 and 5.4
NCCc1c[nH]cn1 [histamine]	13.5 and 15.3 and 16.1 and 15.1
O=c1[nH]c2ccccc2n1C1CCN(CCCC(c2ccc(F)cc2)c2ccc(F)cc2)CC1 [pimozide]	4.4 and 4.3 and 5
CN(C)CCOC1=Cc2ccccc2Sc2ccc(Cl)cc21 [zotepine]	5.4 and 6.9 and 6.1 and 5.8
